Here are results for one molecule from patent publication US9493782B2, “Inducible promoter sequences for regulated expression and methods of use” (PIONEER HI-BRED INTERNATIONAL INC, priority 2012, dated 2016).

SMILES strings stand for the structures.

In experiment [1] the test system is ZmCAS1 transcript. Nature of the experiment: Northern blot of maize anther RNA from CBSU-treated plants, ZmCAS1 probe. The experiment is classed as in vivo. The following applies: FIG. 2. How it is done:
(§1) Wild type maize plants were grown to the meiosis stage of microspore development. Plants were watered with 30 mg 2-CBSU and allowed to develop to the quartet and early vacuolate stage of microspore development. PolyA+ anther RNA was isolated from wild type control and CBSU treated plants and stored. A cDNA library was constructed from mRNAs isolated from CBSU-treated plants, arrayed onto nylon filters and stored. A cDNA subtraction library was generated using the Clontech PCR-Select cDNA Subtraction Kit (#K1804-1) following the manufacturer's instructions to enrich for CBSU-specific transcripts. Using this approach anther PolyA+ mRNA from wild-type plants was used to enrich for transcripts found in the anther PolyA+ mRNA from CBSU treated plants. […]
(§2) To determine whether the ZmCAS1 cDNA was 1) induced in maize anthers by CBSU-treatment and 2) reduced or absent in tapetum and microspore-ablated maize anthers from CBSU-treated 5126:DAM plants, a 477 bp ZmCAS1c-1 DNA fragment (SEQ ID NO:1), as well as DNA fragments from ZmMS45, Zm5126, ZmActin, and ZmUbiquitin (Cigan et al. 2001. […] MS45 and 5126 transcripts were easily detected in anther RNAs from male-fertile plants but absent in anther RNAs from male-sterile plants (FIG. 2) further supporting the observation that these RNAs are localized to the maize tapetum (Cigan et al. 2001. Sex. Plant Reprod. 14, 135-142).

In experiment [2] the test system is truncated 1.0 kb ZmCAS1 promoter driving GUS reporter. Nature of the experiment: GUS staining (X-Gluc) of rice callus events transformed with PHP16974. The class given is cell-based, Oryza sativa cv. Kitaake. The following applies: four PHP16974 events, 100 mg/liter CBSU, 24 hours; FIG. 9. From the text: To determine whether the ZmCAS1 promoter could conditionally regulate expression in response to safener treatment or heat treatment in plant species other than maize, Agrobacterium-mediated transformation was used to generate integrated copies of PHP16974 (ZmCAS1HindIII Pro:GUS) comprising the truncated 1.0 kb ZmCAS1 promoter for studies in rice. Scutellum from 10-14 day old germinating seeds (Oryza sativa cv. Kitaake) was used for rice transformation experiment (Toki. 1997, PI Mol. Biol Reporter 15:16-21). Bialophos-resistant callus events containing PHP16974 were selected and screened for their ability to respond to safener application. Four independent bialophos-resistant events were grown on maintenance media or maintenance media containing 100 mg/liter CBSU for 24 hours, removed and stained with X-Gluc. […] PHP16974 bialophos-resistant events were regenerated into plants. Leaf tissue was collected from these plants and used for DNA hybridization analyses to identify single-copy PHP16974 insertions. These plants were allowed to set selfed seed and were used for subsequent studies to monitor GUS expression under the transcriptional control of the ZmCAS1 promoter. Sixteen seed were selected from 2 single-copy PHP16974 events were sterilized, grown on hormone-free media at 28° C. or 37° C. for 48 hours and allowed to germinate. […]

Experiment [3] concerns 1.7 kb ZmCAS1 promoter driving MS45. Nature of the experiment: Western analysis of MS45 protein in ms45/ms45 maize plants transformed with PHP16973. The experiment is classed as in vivo. The following applies: PHP16973 plants watered with 30 mg CBSU at meiosis stage, collected 2 days later.
In experiment [4] the test system is 1.0 kb ZmCAS1 promoter driving MS45. Nature of the experiment: Northern analysis of MS45 mRNA in ms45/ms45 maize callus transformed with PHP16972. The class given is cell-based. The following applies: five PHP16972 ms45/ms45 callus events, 100 mg/liter CBSU, room temperature, 18 hours; FIG. 6. From the text:
T-DNA vectors PHP16972 (SEQ ID NO:13, ZmCAS1HindIII Pro: MS45/35S:PAT) and PHP16973 (SEQ ID NO: 14, ZmCAS1 BamPro:MS45/35S:PAT) were used to transform maize callus which was generated to contain a segregating population of MS45/ms45 heterozygous and ms45/ms45 homozygous mutant plants. In order to detect MS45 RNA or protein expression under the control of the 1.0 or 1.7 kb ZmCAS promoter in maize anthers, plants containing a naturally occurring mutation in the maize MS45 gene which results in loss of MS45 RNA and protein were used for these studies. Pollen from MS45/ms45 plants were used to fertilize male-sterile ms45/ms45 plants for the purpose of generating embryos which would be ms45/ms45 as described in Cigan et al 2001. […] Five random bialophos-resistant callus events containing integrated copies of PHP16972 were placed onto maintenance media (FIG. 5, (−)) and maintenance media containing 100 mg/liter safener CBSU-2 (FIG. 5 (+)) at room temperature for 18 hours, removed and PolyA+ RNA prepared and used for RNA analysis as described (Cigan et al. 2001. Sex. Plant Reprod. 14, 135-142) using the ZmMS45 and ZmActin probes for hybridization analysis. […] A very low signal was observed when callus was grown in the absence of CBSU. Actin was used as a control probe to show nearly equivalent RNA levels were present in all samples. […]

Experiment [5] deals with IN2-2 transcript. Briefly: Northern blot of maize anther RNA from CBSU-treated plants, IN2-2 probe. The experiment is classed as in vivo. The following applies: CBSU-treated male-fertile and male-sterile plants; not detectable in untreated controls; FIG. 2. How it is done: as §1, §2
The test system of experiment [6] is truncated 1.0 kb ZmCAS1 promoter driving GUS reporter. Briefly: GUS staining (X-Gluc) of maize callus events transformed with PHP16974. The class given is cell-based. The following applies: seven PHP16974 callus events, 100 mg/liter CBSU, room temperature; FIG. 4B.
In experiment [7] the test system is 1.7 kb ZmCAS1 promoter driving GUS reporter. Briefly: GUS expression in leaf punches of maize plants transformed with PHP16975. The following applies: 3 PHP16975 plants, about 5 leaf stage, 2 days after watering with 30 mg 2-CBSU; FIG. 5. The experiment is classed as in vivo. How it is done: Plants were also regenerated from callus events containing PHP16975 and grown in the greenhouse to approximately the 5 leaf stage. At this stage of development, leaf punches from plants regenerated from the 3 bialophos-resistant events shown in FIG. 5 were collected pre- (C) and post-watering (S) with 30 mg of 2-CBSU to examine GUS expression in leaf in response to application of the safener.

Experiment [8] shares this test system. Briefly: GUS staining (X-Gluc) of maize callus events transformed with PHP16975. The following applies: room temperature, 18 hours, FIG. 4A. The class given is cell-based. An excerpt: Agrobacterium-mediated transformation of immature embryos was used to generate integrated copies of PHP16974 (SEQ ID NO:11; ZmCAS1HindIII Pro:GUS/35SPAT) comprising the 1.0 kb ZmCAS1 promoter (SEQ ID NO:9), PHP16975 (SEQ ID NO:12, ZmCAS1BamPro:GUS/35SPAT) comprising the 1.7 kb ZmCAS1 promoter (SEQ ID NO:10) and PHP16972 (SEQ ID NO:13, ZmCAS1HindIII Pro:MS45/35SPAT) comprising the 1.0 kb ZmCAS1 promoter or PHP16973 (SEQ ID NO:14, ZmCAS1BamPro:MS45/35SPAT:) comprising the 1.7 kb ZmCAS1 promoter.
To determine whether the 1.7 kb or the 1.0 kb ZmCAS1 promoter from maize could direct induced expression of the GUS reporter, three bialophos-resistant callus events were placed onto maintenance media and maintenance media containing increasing amounts of the safener CBSU-2 for at room temperature for 18 hours, removed and stained with X-Gluc to detect GUS activity.

In experiment [9] the test system is ZmCAS1 transcript. Nature of the experiment: Northern blot of maize callus, leaf and anther RNA treated with CBSU, ZmCAS1 probe. The following applies: CBSU-treated tissues; FIG. 3.

As for `NC(=O)NS(=O)(=O)c1ccccc1Cl` [CBSU, N-(aminocarbonyl)-2-chlorobenzenesulfonamide], the “ZmCAS1 hybridization signal in anther mRNA” value in [1] (male-fertile plants watered with 30 mg 2-CBSU (+, F)) was “strong hybridization signals”; in experiment [1] (male-sterile 5126:DAM plants, CBSU-treated (+, S)), “reduced ZmCAS1 signal”. In experiment [2], the “GUS expression in rice callus” value is on record as “strong GUS expression”. In experiment [3] (FIG. 7), the “MS45 protein in leaf extracts” value is on record as “increased steady-state levels of the MS45 protein”. In experiment [3] (FIG. 8), the “MS45 protein in anther extracts” value is given as “Increased MS45 protein”. In addition, in experiment [4], the “MS45 mRNA hybridization signal in callus” value is listed as “strong induction”. Also, the “IN2-2 hybridization signal in anther mRNA” value in experiment [5] was “strong hybridization signals”. Also, the “GUS expression in callus” value in [6] is “inducible GUS expression”; in experiment [8] (10 mg/l CBSU), “low levels of GUS expression”; in experiment [8] (100 mg/l CBSU), “strong GUS expression”. Further, in [7], the “GUS expression in leaf punches” value was “strong GUS expression”. Besides, the “ZmCAS1 hybridization in mRNAs from callus, leaf and anther” value in [9] is “strong hybridization”.
